Assay results: patent US7119089B2, “Phenothiazine kinesin inhibitors” (Cytokinetics, Inc., priority 2001, dated 2006)

Assays:
A549 cells = conditions: data provided by National Cancer Institute; cited from earlier work
[1] = test system: Skov-3 cells (human ovarian cancer); assay: FACS analysis of cell cycle stage by DNA content (mitotic arrest); format: cell-based; conditions: 24 hours treatment, paclitaxel at 10 nM
Description: FACS analysis to determine cell cycle stage by measuring DNA content was performed as follows. Skov-3 cells (human ovarian cancer) were split 1:10 for plating in 10 cm dishes and grown to subconfluence with RPMI 1640 medium containing 5% fetal bovine serum (FBS). The cells were then treated with either 10 nM paclitaxel, the test compound or 0.25% DMSO (vehicle for compounds) for 24 hours. Cells were then rinsed off the plates with PBS containing 5 mM EDTA, pelleted, washed once in PBS containing 1% FCS, and then fixed overnight in 85% ethanol at 4° C. Before analysis, the cells were pelleted, washed once, and stained in a solution of 10 μg propidium iodide and 250 μg of ribonuclease (RNAse) A per milliliter at 37° C. for half an hour. Flow cytometry analysis was performed on a Becton-Dickinson FACScan, and data from 10,000 cells per sample was analyzed with Modfit software.

| Compound | GI50 (A549 cells) [nM] | shift in the population of cells from G0/G1 cell cycle stage (2n DNA content) to G2/M cell cycle stage (4n DNA content) [1] |
| --- | --- | --- |
| COc1cccc2c1C(=O)c1c(O)c3c(c(O)c1C2=O)C[C@@](O)(C(=O)CO)C[C@@H]3O[C@H]1C[C@H](N)[C@H](O)[C@H](C)O1 [doxorubicin] | 63 |  |
| O=c1[nH]cc(F)c(=O)[nH]1 [5-fluorouracil] | 1000 |  |
| CC(=O)O[C@H]1C(=O)[C@@]2(C)[C@H]([C@H](OC(=O)c3ccccc3)[C@]3(O)C[C@H](OC(=O)[C@H](O)[C@@H](NC(=O)c4ccccc4)c4ccccc4)C(C)=C1C3(C)C)[C@]1(OC(C)=O)CO[C@@H]1C[C@@H]2O [paclitaxel] | 4 | caused a shift in the population of cells from a G0/G1 cell cycle stage (2n DNA content) to a G2/M cell cycle stage (4n DNA content) |
| NC(=O)NO [hydroxyurea] | 500000 |  |
